Measured values reported in US20220249463A1, “METHODS OF ALTERING CARDIAC REMODELING USING COMPOUNDS THAT PROMOTE GLUCOSE OXIDATION” (IMBRIA PHARMACEUTICALS, INC., priority 2019, published 2022).

Assay: Stability of CV-8972 in aqueous solution at different concentrations and pH
Format: physicochemical
Experimental: The stability of CV-8972 was analyzed. Aqueous samples containing CV-8972 at different concentrations and pH were incubated for various periods and analyzed.
Form A of CV-8972 were analyzed for stability in aqueous solution. Aqueous samples containing CV-8972 at different concentrations and pH were incubated for various periods and analyzed.

[1] = 289-MBA-15-A 2 mg/mL pH 6 (Form B), 22 hrs, pH 6.7
[2] = 289-MBA-15-A 2 mg/mL pH 7 (Form B), 0 hrs, pH 6.5
[3] = 289-MBA-15-A 2 mg/mL pH 7 (Form B), 1 hrs, pH 6.6
[4] = 289-MBA-15-A 2 mg/mL pH 7 (Form B), 4 hrs, pH 6.5
[5] = 289-MBA-15-A 10 mg/mL pH 6 (Form B), 0 hrs, pH 6
[6] = 289-MBA-15-A 10 mg/mL pH 6 (Form B), 1 hrs, pH 6.1
[7] = 289-MBA-15-A 10 mg/mL pH 6 (Form B), 4 hrs, pH 6
[8] = 289-MBA-15-A 10 mg/mL pH 6 (Form B), 6 hrs, pH 5.9
[9] = 289-MBA-15-A 10 mg/mL pH 6 (Form B), 22 hrs, pH 5.9
[10] = 289-MBA-15-A 10 mg/mL pH 7 (Form B), 0 hrs, pH 7.4
[11] = 289-MBA-15-A 10 mg/mL pH 7 (Form B), 1 hrs, pH 7.4
[12] = 289-MBA-15-A 10 mg/mL pH 7 (Form B), 4 hrs, pH 7.4
[13] = 289-MBA-15-A 10 mg/mL pH 7 (Form B), 6 hrs, pH 7.3
[14] = Form A, aqueous, 4.2 mg/mL, Initial pH = 2.3, 0 hrs
[15] = Form A, aqueous, 4.2 mg/mL, Initial pH = 2.3, 1 hrs
[16] = Form A, aqueous, 4.2 mg/mL, Initial pH = 2.3, 2 hrs
[17] = Form A, aqueous, 4.2 mg/mL, Initial pH = 2.3, 6 hrs
[18] = Form A, aqueous, 12.5 mg/mL, Initial pH = 2.1, 0 hrs
[19] = Form A, aqueous, 12.5 mg/mL, Initial pH = 2.1, 1 hrs
[20] = Form A, aqueous, 12.5 mg/mL, Initial pH = 2.1, 2 hrs
[21] = Form A, aqueous, 12.5 mg/mL, Initial pH = 2.1, 6 hrs
[22] = Form A, aqueous, 21 mg/mL, Initial pH = 2.0, 0 hrs
[23] = Form A, aqueous, 21 mg/mL, Initial pH = 2.0, 1 hrs
[24] = Form A, aqueous, 21 mg/mL, Initial pH = 2.0, 2 hrs
[25] = Form A, aqueous, 21 mg/mL, Initial pH = 2.0, 6 hrs

Retention Time 2.2 [1]: 7.72
Retention Time 2.6 [1]: 1.13
Retention Time 4.2 [1]: 0.86
Retention Time 4.7 [1]: 1.14
Retention Time 5.6 [1]: 89.15
Retention Time 2.2 [2]: 1.62
Retention Time 4.2 [2]: 0.9
Retention Time 5.6 [2]: 97.48
Decrease in purity of CV-8972 between time points [3]: 2.02
Retention Time 2.2 [3]: 3.16
Retention Time 4.2 [3]: 0.89
Retention Time 4.7 [3]: 0.49
Retention Time 5.6 [3]: 95.46
Decrease in purity of CV-8972 between time points [4]: 1.54
Retention Time 2.2 [4]: 4.27
Retention Time 2.6 [4]: 0.53
Retention Time 4.2 [4]: 0.66
Retention Time 4.7 [4]: 0.62
Retention Time 5.6 [4]: 93.92
Retention Time 2.2 [5]: 3.3
Retention Time 2.6 [5]: 0.6
Retention Time 4.2 [5]: 0.26
Retention Time 4.7 [5]: 0.48
Retention Time 5.6 [5]: 95.36
Decrease in purity of CV-8972 between time points [6]: 0.55
Retention Time 2.2 [6]: 3.76
Retention Time 2.6 [6]: 0.65
Retention Time 4.2 [6]: 0.25
Retention Time 4.7 [6]: 0.53
Retention Time 5.6 [6]: 94.81
Decrease in purity of CV-8972 between time points [7]: 0.12
Retention Time 2.2 [7]: 3.97
Retention Time 2.6 [7]: 0.59
Retention Time 4.2 [7]: 0.19
Retention Time 4.7 [7]: 0.56
Retention Time 5.6 [7]: 94.69
Decrease in purity of CV-8972 between time points [8]: 0.3
Retention Time 2.2 [8]: 4.3
Retention Time 2.6 [8]: 0.54
Retention Time 4.2 [8]: 0.17
Retention Time 4.7 [8]: 0.6
Retention Time 5.6 [8]: 94.39
Decrease in purity of CV-8972 between time points [9]: 0.46
Retention Time 2.2 [9]: 4.53
Retention Time 2.6 [9]: 0.69
Retention Time 4.2 [9]: 0.19
Retention Time 4.7 [9]: 0.65
Retention Time 5.6 [9]: 93.93
Retention Time 2.2 [10]: 6.2
Retention Time 2.6 [10]: 1.16
Retention Time 4.2 [10]: 0.27
Retention Time 4.7 [10]: 0.87
Retention Time 5.6 [10]: 91.5
Decrease in purity of CV-8972 between time points [11]: 5.32
Retention Time 2.2 [11]: 10.47
Retention Time 2.6 [11]: 1.65
Retention Time 4.2 [11]: 0.25
Retention Time 4.7 [11]: 1.44
Retention Time 5.6 [11]: 86.18
Decrease in purity of CV-8972 between time points [12]: 3.82
Retention Time 2.2 [12]: 13.64
Retention Time 2.6 [12]: 1.93
Retention Time 4.2 [12]: 0.19
Retention Time 4.7 [12]: 1.89
Retention Time 5.6 [12]: 82.36
Decrease in purity of CV-8972 between time points [13]: 2.99
Retention Time 2.2 [13]: 15.66
Retention Time 2.6 [13]: 2.57
Retention Time 4.2 [13]: 0.2
Retention Time 4.7 [13]: 0.2
Retention Time 5.6 [13]: 79.37
Retention Time 3.9 [14]: 5.35
Retention Time 5.4 [14]: 94.65
% change from t0 of RT 5.4 [15]: 1.41%
Retention Time 3.9 [15]: 4.02
Retention Time 5.4 [15]: 95.98
% change from t0 of RT 5.4 [16]: −3.66%
Amount of peak at retention time 1.9 [16]: 3.72
Retention Time 3.9 [16]: 5.09
Retention Time 5.4 [16]: 91.19
% change from t0 of RT 5.4 [17]: −10.21%
Amount of peak at retention time 1.9 [17]: 9.71
Retention Time 3.9 [17]: 5.3
Retention Time 5.4 [17]: 84.99
Retention Time 3.9 [18]: 1.79
Retention Time 5.4 [18]: 98.21
% change from t0 of RT 5.4 [19]: −1.02%
Amount of peak at retention time 1.9 [19]: 1.38
Retention Time 3.9 [19]: 1.41
Retention Time 5.4 [19]: 97.21
% change from t0 of RT 5.4 [20]: −2.35%
Amount of peak at retention time 1.9 [20]: 2.43
Retention Time 3.9 [20]: 1.67
Retention Time 5.4 [20]: 95.9
% change from t0 of RT 5.4 [21]: −8.79%
Retention Time 2.2 [21]: 1.04
Retention Time 3.9 [21]: 1.74
Retention Time 5.4 [21]: 89.58
Retention Time 3.9 [22]: 1.12
Retention Time 5.4 [22]: 98.88
% change from t0 of RT 5.4 [23]: −0.86%
Amount of peak at retention time 1.9 [23]: 1.03
Retention Time 3.9 [23]: 0.94
Retention Time 5.4 [23]: 98.03
% change from t0 of RT 5.4 [24]: −1.79%
Amount of peak at retention time 1.9 [24]: 1.9
Retention Time 3.9 [24]: 1
Retention Time 5.4 [24]: 97.11
% change from t0 of RT 5.4 [25]: −6.78%
Retention Time 2.2 [25]: 0.83
Retention Time 3.9 [25]: 0.96
Retention Time 5.4 [25]: 92.18
SMILES: COc1ccc(CN2CCN(CCOC(=O)c3cccnc3)CC2)c(OC)c1OC [CV-8972, 2-(4-(2,3,4-trimethoxybenzyl)piperazin-1-yl)ethyl nicotinate]
